In US20090156565A1, “COMPOSITION AND USE THEREOF IN ENHANCING A THERAPEUTIC EFFECT OF AN ANTIEPILEPTIC DRUG” (priority 2004, published 2009):
Where two headings read alike, the source gives them in different places.

Tests used:
[1] = tested on: maximal electricroshock-induced seizures; conditions: cited from earlier work; for protective activity of clonazepam against maximum electroshock: co-administration
status epilepticus = test: Mifepristone given 15 minutes after onset of SE, diazepam after 1 hour, hourly monitoring for behavioral seizures; assay type: in vivo, rats; conditions: for rats that stopped seizing: 5 and 6 hours after DZ treatment
Method: In this experiment, mifepristone was given 15 minutes after onset of SE, but prior to administering the first dose of diazepam (DZ). Diazepam (7.5 mg/kg) was given after 1 hour of onset of SE. After DZ treatment, rats were monitored hourly for behavioral seizures.

[2] = tested on: pilocarpine induced status-epilepticus; test: Pilocarpine induced status-epilepticus in rats, mifepristone pretreatment, repeated diazepam doses until seizures stop; assay type: in vivo, Adult male Sprague-Dawley rats; conditions: for cumulative diazepam dose required to stop behavioral seizures (mean ±SEM): diazepam 6 mg/kg 1 h after SE, then 3 mg/kg every two hours
Method: Mifepristone is a yellow powdery substance and is available commercially (Sigma, St. Louis, Mo.). Adult male Sprague-Dawley rats were implanted with electrodes in CA1 and frontal cortex. After one week of recovery, rats were put in recording cages and connected to EEG monitoring system for continuous video-EEG recording. Rats were then treated with mifepristone (25 mg/kg body weight) one hour before the pilocarpine injection. Thirty minutes later rats were treated with scopalamine (1 mg/kg body weight) to reduce peripheral side effects of pilocarpine. Rats were injected with pilocarpine (385 mg/kg body weight) 30 minutes after the scopalamine injection to induce status-epilepticus. One hour after declared status-epilepticus, rats were treated with diazepam (6 mg/kg) to stop the seizures. Every two hours rats were monitored for signs of behavioral seizures and if required they were injected with 3 mg/kg diazepam until they completely stop seizing. The process was repeated until the rats completely stopped seizing. […] This example was presented by inventors in an article titled “Effects of Glucocorticoid Receptor Activity on Diazepam Efficacy in Terminating Status-Epilepticus in Adult Rats,” Epilepsia Vol. 45, Suppl. 7, page 146, October, 2004.
The histogram represents mean (±SEM) cumulative diazepam dose (mg/kg body weight) required to stop behavioral seizures.

[3] = tested on: pilocarpine induced status-epilepticus; test: Pilocarpine induced status-epilepticus in rats, mifepristone pretreatment, single diazepam dose, behavioral seizures (Racine stage); assay type: in vivo; conditions: not pretreated with mifepristone; single diazepam dose 7.5 mg/kg given 30 minutes after status-epilepticus; n=5
[4] = tested on: pilocarpine induced status-epilepticus; test: EEG (cortex and hippocampus) 24 hours after pilocarpine injection; assay type: in vivo; conditions: rats that received mifepristone versus rats without treatment

CC(=O)O[C@]1(C(C)=O)CC[C@H]2[C@@H]3C=C(Cl)C4=CC(=O)[C@@H]5C[C@@H]5[C@]4(C)[C@H]3CC[C@@]21C [CYP, cyproterone acetate]
protective activity of clonazepam against maximum electroshock ([1]; male mice): improved

CC/C(=C(\c1ccccc1)c1ccc(OCCN(C)C)cc1)c1ccccc1 [TXF, tamoxifen]
protective activity of clonazepam against maximum electroshock ([1]; female mice): improved

CN1C(=O)CN=C(c2ccccc2)c2cc(Cl)ccc21 [diazepam]
rats that stopped seizing (status epilepticus; diazepam 7.5 mg/kg, rats not receiving mifepristone): 33%
cumulative diazepam dose required to stop behavioral seizures (mean ±SEM) ([2]; rats that did not receive mifepristone, ±0.5, n=20): 10.2 mg/kg
rats that stopped seizing by 4 hours [3]: 1/5

CC#C[C@]1(O)CC[C@H]2[C@@H]3CCC4=CC(=O)CCC4=C3[C@@H](c3ccc(N(C)C)cc3)C[C@@]21C [mifepristone, 17-beta-hydroxy-11-beta-(4-dimethyl-aminophenyl)-17-alpha(1-propynyl)-estra-4,9-dien-3-one]
rats that had stopped seizing, compared to rats that did not receive mifepristone (status epilepticus; 3 to 6 hours after DZ treatment, mifepristone 15 minutes after onset of SE, diazepam 7.5 mg/kg 1 hour after onset): significantly more
rats that stopped seizing (status epilepticus; mifepristone 15 minutes after onset of SE plus diazepam 7.5 mg/kg, p<0.018, Kaplan-Meier): 100%
frequency of spike-wave discharges and seizure recurrence [4]: lower frequency of spike-wave discharges and seizure recurrence
lower cumulative diazepam dose to terminate behavioral seizures compared to rats not pretreated with mifepristone ([2]; mifepristone pretreatment before pilocarpine, P<0.0005): 26.5%
cumulative diazepam dose required to stop behavioral seizures (mean ±SEM) ([2]; rats pretreated with mifepristone 25 mg/kg one hour before pilocarpine, ±0.41, n=14, p<0.0005): 7.5 mg/kg
effect on protective action of antiepileptic drugs against maximal electroshock-induced seizures ([1]; in combination with clonazepam, carbamazepine, phenobarbital, mice): failed to affect their protective action
effect on electrically-induced seizures ([1]; used alone, mice): no effect
